Assay results reported in ChEMBL document CHEMBL5375967 (J Med Chem, 2023).
In brackets after ≈: the same amount, converted by molar mass.

Experiments:
[1] = physchem; settings: buffer, pH 6.8
[2] = Inhibition of calcium ionophore A23187-stimulated LTB4 release in C57BL/6 mouse model at 10 mg/kg, po bid measured after 2 hrs; format: functional
[3] = in vitro; settings: dog, MDCK
[4] = in vitro; settings: mouse, liver microsomes
[5] = in vivo; settings: C57BL/6, mouse, po, 10 mg/kg
[6] = in vitro; settings: rat, liver microsomes
[7] = physchem; settings: octanol/water, pH 7.4
[8] = in vitro; settings: human, liver microsomes
[9] = in vivo; settings: C57BL/6, mouse, po, 10 mg/kg; remark: listed apart in the source
[10] = in vivo; settings: Sprague-Dawley, rat, iv, 1 mg/kg
[11] = in vivo; settings: Sprague-Dawley, rat, po, 3 mg/kg
[12] = target: T1, Voltage-gated inwardly rectifying potassium channel KCNH2 (Homo sapiens, UniProt Q12809)
T1 sequence (Q12809 whole entry): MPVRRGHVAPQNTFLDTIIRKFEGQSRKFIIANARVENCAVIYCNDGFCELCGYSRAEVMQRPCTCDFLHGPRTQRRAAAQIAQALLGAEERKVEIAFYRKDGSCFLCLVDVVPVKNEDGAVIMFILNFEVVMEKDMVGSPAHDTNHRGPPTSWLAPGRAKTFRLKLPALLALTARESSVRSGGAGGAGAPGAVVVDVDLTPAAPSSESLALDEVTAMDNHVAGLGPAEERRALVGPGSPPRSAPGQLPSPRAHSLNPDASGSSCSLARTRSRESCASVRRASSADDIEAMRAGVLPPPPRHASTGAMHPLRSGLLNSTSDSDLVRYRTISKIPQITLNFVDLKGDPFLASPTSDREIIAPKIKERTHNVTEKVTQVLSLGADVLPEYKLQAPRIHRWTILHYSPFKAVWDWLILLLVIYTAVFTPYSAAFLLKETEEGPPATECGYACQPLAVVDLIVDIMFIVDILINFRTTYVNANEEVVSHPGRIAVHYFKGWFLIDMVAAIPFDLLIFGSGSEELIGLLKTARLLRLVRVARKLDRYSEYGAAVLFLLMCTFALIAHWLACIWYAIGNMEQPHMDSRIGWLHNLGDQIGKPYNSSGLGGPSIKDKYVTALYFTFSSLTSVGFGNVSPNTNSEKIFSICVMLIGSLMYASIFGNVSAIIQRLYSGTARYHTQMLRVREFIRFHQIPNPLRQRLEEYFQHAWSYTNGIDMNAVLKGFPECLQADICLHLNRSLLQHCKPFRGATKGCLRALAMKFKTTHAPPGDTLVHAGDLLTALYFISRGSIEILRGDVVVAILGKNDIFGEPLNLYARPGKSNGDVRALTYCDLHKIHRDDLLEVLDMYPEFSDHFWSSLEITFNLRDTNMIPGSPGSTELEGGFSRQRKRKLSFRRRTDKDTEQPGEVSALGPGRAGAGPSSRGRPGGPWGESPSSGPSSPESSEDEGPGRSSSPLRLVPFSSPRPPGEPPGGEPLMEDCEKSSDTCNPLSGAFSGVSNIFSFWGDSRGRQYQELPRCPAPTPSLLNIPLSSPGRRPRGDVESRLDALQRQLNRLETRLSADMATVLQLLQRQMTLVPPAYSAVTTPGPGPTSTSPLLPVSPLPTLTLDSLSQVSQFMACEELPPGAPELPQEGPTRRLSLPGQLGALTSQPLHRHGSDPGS

[13] = in vivo; settings: Sprague-Dawley, rat, iv, 1 mg/kg; remark: listed apart in the source
[14] = in vivo; settings: Sprague-Dawley, rat, iv, 1 mg/kg; remark: listed apart in the source
[15] = target: T1, Voltage-gated inwardly rectifying potassium channel KCNH2; remark: listed apart in the source
[16] = in vivo; settings: Sprague-Dawley, rat, iv, 1 mg/kg; remark: listed apart in the source
[17] = in vivo; settings: Sprague-Dawley, rat, iv, 1 mg/kg; remark: listed apart in the source
[18] = target: T1, Voltage-gated inwardly rectifying potassium channel KCNH2; remark: listed apart in the source
[19] = in vivo; settings: Sprague-Dawley, rat, iv, 1 mg/kg; remark: listed apart in the source
[20] = target: T2, Leukotriene A-4 hydrolase (Homo sapiens, UniProt P09960); test: Inhibition of LTA4H in human blood assessed as LTB4 production; format: tissue-based
T2 sequence (P09960 whole entry): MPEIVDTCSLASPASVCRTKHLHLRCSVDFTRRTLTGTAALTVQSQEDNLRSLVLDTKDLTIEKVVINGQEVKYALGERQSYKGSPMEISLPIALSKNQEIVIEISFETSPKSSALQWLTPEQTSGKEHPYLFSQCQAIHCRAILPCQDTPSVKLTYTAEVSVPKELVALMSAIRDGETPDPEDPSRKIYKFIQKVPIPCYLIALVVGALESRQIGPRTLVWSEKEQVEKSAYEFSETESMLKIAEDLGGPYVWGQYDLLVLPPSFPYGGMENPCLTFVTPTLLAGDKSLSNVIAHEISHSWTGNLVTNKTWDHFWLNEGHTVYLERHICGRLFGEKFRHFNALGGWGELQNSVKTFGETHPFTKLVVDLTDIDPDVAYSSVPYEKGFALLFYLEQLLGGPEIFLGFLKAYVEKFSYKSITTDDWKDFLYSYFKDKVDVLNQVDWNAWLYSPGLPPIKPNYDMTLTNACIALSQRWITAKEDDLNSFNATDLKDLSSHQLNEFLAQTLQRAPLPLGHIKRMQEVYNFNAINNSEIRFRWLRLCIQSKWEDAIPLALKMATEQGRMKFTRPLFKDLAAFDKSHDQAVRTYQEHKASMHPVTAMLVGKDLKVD

[21] = target: T2, Leukotriene A-4 hydrolase; test: Inhibition of LTA4H (unknown origin)
[22] = physchem

| solubility [1] | Papp A→B [3] | microsomal CLint [4] | microsomal CLint [6] | logD [7] | microsomal CLint [8] | MRT [10] | AUC(0-inf) [11] | Vd [13] | bioavailability [14] | concentration at 24 h [16] | clearance [17] | Cmax [19] | Compound | IC50 [12] | IC50 [18] | other results |
| --- | --- | --- | --- | --- | --- | --- | --- | --- | --- | --- | --- | --- | --- | --- | --- | --- |
| 620 µM (≈ 244 µg/mL) | 1.8 ×10⁻⁶ cm/s | < 25 µL/min/mg | < 25 µL/min/mg | 0.5 | < 25 µL/min/mg | – | – | – | – | – | – | – | N[C@@H](CC(=O)O)Cn1nnc(-c2ccc(Oc3ncc(Cl)cc3F)cc2)n1 | – | – | inhibition in vivo at 10 mg/kg [2]: 97%; concentration at 2 h ([5]; in vivo): 1290 nM; concentration at 24 h ([9]; in vivo): 184 nM |
| 870 µM (≈ 329 µg/mL) | 9 ×10⁻⁶ cm/s | 29 µL/min/mg | < 25 µL/min/mg | 1.8 | < 25 µL/min/mg | 23 h | 4.2 µM·h | 21 L/kg | 49% | 23 nM | 16 mL/min/kg | 403 nM | N[C@H](CO)Cc1nc(-c2ccc(Oc3ccc(-c4cc[nH]n4)cn3)cc2)no1 | > 30 µM | > 30 µM | IC50 [15]: > 100 µM; concentration at 2 h ([5]; blood): 800 nM; concentration at 24 h ([9]; blood): 116 nM |
| 580 µM (≈ 220 µg/mL) | 21 ×10⁻⁶ cm/s | 145 µL/min/mg | 94 µL/min/mg | 2.4 | 40 µL/min/mg | – | – | – | – | – | – | – | N[C@H](CCO)Cn1nnc(-c2ccc(Oc3ncc(Cl)cc3F)cc2)n1 | > 30 µM | – | – |
| – | – | – | – | – | – | – | – | – | – | – | – | – | CC(=O)N[C@H]1C[C@H]2CC[C@@H](C1)N2Cc1ccc(Oc2nc3ncccc3s2)cc1 | – | – | IC50 [20]: 0.042 µM; IC50 [21]: 0.003 µM |
| > 1000 µM | 28 ×10⁻⁶ cm/s | < 25 µL/min/mg | < 25 µL/min/mg | 2.3 | < 25 µL/min/mg | 5.3 h | 14.7 µM·h | 3 L/kg | 100% | 52 nM | 9 mL/min/kg | 1300 nM | N[C@H](CO)Cn1nnc(-c2ccc(Oc3ncc(Cl)cc3F)cc2)n1 | > 30 µM | 30 µM | pKa [22]: 7.1; IC50 [15]: 28 µM; concentration at 2 h ([5]; blood): 2980 nM; concentration at 24 h ([9]; blood): 134 nM |
| 30 µM (≈ 8.86 µg/mL) | 34 ×10⁻⁶ cm/s | 246 µL/min/mg | 266 µL/min/mg | 3 | 396 µL/min/mg | – | – | – | – | – | – | – | Cc1ccc(Oc2ccc(-c3nnn(CCN)n3)cc2)cc1 | 6 µM | – | – |
| 520 µM (≈ 190 µg/mL) | 25 ×10⁻⁶ cm/s | < 25 µL/min/mg | < 25 µL/min/mg | 2.3 | < 25 µL/min/mg | 4.5 h | 0.369 µM·h | 36 L/kg | 37% | 2 nM | 134 mL/min/kg | 42 nM | N[C@@H](CO)Cn1nnc(-c2ccc(Oc3ncc(Cl)cc3F)cc2)n1 | > 30 µM | > 30 µM | pKa [22]: 7.1 |
| – | – | – | – | – | – | – | – | – | – | – | – | – | O=C(O)c1ccc(CN2C[C@@H]3C[C@H]2CN3Cc2ccc(Oc3ccc(-c4ncco4)cc3)cc2)cc1 [ACEBILUSTAT] | – | – | IC50 [20]: 0.135 µM; IC50 [21]: 0.003 µM |
| – | 23 ×10⁻⁶ cm/s | – | – | – | – | – | – | – | – | – | – | – | N[C@@H](CCO)Cn1nnc(-c2ccc(Oc3ncc(Cl)cc3F)cc2)n1 | – | – | – |
